Columns and labels:
[1] = Fluorescence emission before/after photolysis at pH=8 (spectroscopic studies of photo reactions); assay type: physicochemical
Protocol: FIG. 16. Spectroscopic studies of photo reactions for different FLASH-off probes. A. Schematic depiction of the photo reactions for FLASH-off 500-650 (1a-d respectively) with the absorbance and emission spectra scans of the photo reactions (5 μM) in (citric acid+Na2HPO4 buffer, pH=8) before (red) and after (dark) irradiation 1 min 365 nm lamp. All spectra were taken in triplicates. B. Pictures of solutions of panel A in white light (top and bottom) and under UV light (middle).
Photolysis experiments. Solutions for compounds 1a-d were made in the corresponding buffers (pH=3-8) at a concentration of 1-100 μM. The samples were irradiated using different UV light sources (i) LED light source (405 nm, 1.14 mW cm^−2, LuxeonStar SZ-05-U3); UV lamp (˜365 nm, 0.32 mW cm^−2; UVL-28 EL Series, UVP) at different power and time settings (1 s-5 min). Fluorescence intensity was measured at the corresponding λmax of emission before irradiation (t=0 min) and after irradiation (t=1, 2, 3, and 5 min). The data were plotted as the integrated fluorescence intensity normalized to the initial intensity (I=1).

[2] = test system: human FFPE tonsil sections; assay: Multiplexed tissue imaging and quenching in FFPE tonsil sections
Protocol: FIG. 23. Quenching can be spatially controlled. A. Focused local quenching experiment (top) in tonsil tissue sections using an epifluorescent microscope. Local quenching was performed using a 40× magnification (DAPI, 8 s) and read-out was performed with 10× magnification (647 nm channel). (<90%) of fixed human tonsil stained with CD45-FLASH-off 650. Whole sample quenching (bottom) was achieved by soaking the sample with buffer at pH=8.4 and using an external 405 nm lamp placed at about 1 cm distance for 2 min. Scale bar=[…] (top), […] (bottom).
Human tissue sections. De-identified formaldehyde-fixed paraffin-embedded tissue sections were commercially obtained from Biomax (HuFOT161, Biomax). Tissue sections were de-paraffinized, rehydrated, and antigen-retrieved in pH 9antigen retrieval buffer. Then sections were blocked with Intercept Blocking buffer (LI-COR) for 30 min before antibody staining for FLASH-off FFPE. Tissues were incubated with FLASH-off antibody conjugates for 30 minutes followed by rinses. […]
We prepared four antibody-FLASH-off conjugates that recognize human immune markers including CD45, CD11c, CD11b, and Pan-CK. […] Regions of high immune cell density were localized and the location of the selected immune markers was assessed within the distinctive morphological structures of tonsils tissue. […]

| Compound | spirocyclization with increasing pH [1] | signal intensity of non-photoquenchable stains after UV light irradiation [2] |
| --- | --- | --- |
| CNC(=O)c1ccccc1Cc1c2ccc(=N)c(S(=O)(=O)O)c-2oc2c(S(=O)(=O)O)c(N)ccc12 [Compound 7a] | did not proceed with increasing pH | – |
| N=C(N)c1ccc(-c2cc3ccc(C(=N)N)cc3[nH]2)cc1 [DAPI] | – | without causing an apparent decrease in signal intensity |

Reference: US20250283800A1, “PROBES FOR FLUORESCENCE IMAGING” (The General Hospital Corporation, priority 2022, published 2025)
